Key:
Rhesus PDE2A3 = Rhesus PDE2A3 (Macaca mulatta, UniProt B3VTJ2); assay: IMAP fluorescence polarization assay, rhesus PDE2A3 lysate from transfected AD293 cells; type: biochemical, rhesus macaque; details: FAM-labeled cAMP 50 nM, activator cGMP 1 uM; read-out: Rhesus PDE2 Ki
Protocol: The activity of the compounds in accordance with the present invention as PDE2 inhibitors may be readily determined using a fluorescence polarization (FP) methodology (Huang, W., et al., J. Biomol Screen, 2002, 7: 215).
In a typical experiment the PDE2 inhibitory activity of the compounds of the present invention was determined in accordance with the following experimental method. Rhesus PDE2A3 was amplified from rhesus macaque brain cDNA (Biochain Institute, Hayward, Calif.) using primers based on human PDE2A sequence (accession NM_002599.3) where the forward primer containing a Kozak consensus was 5′-[…]-3′ and the reverse primer was 5′-[…]-3′. Amplification with Easy-A High-Fidelity PCR cloning enzyme (Stratagene, La Jolla, Calif.) was 95° C. for 2 minutes followed by thirty three cycles of 95° C. for 40 seconds, 52° C. for 30 seconds, and 72° C. for 2 minutes 48 seconds. Final extension was 72° C. for 7 minutes. The PCR product was TA cloned into pcDNA3.3-TOPO (Invitrogen, Carlsbad, Calif.) according to standard protocol. A consensus sequence was developed from multiple clones and then deposited into GenBank (EU812167). AD293 cells (Stratagene, La Jolla, Calif.) with 70-80% confluency were transiently transfected with rhesus PDE2A3/pcDNA3.3-TOPO using Lipofectamine 2000 according to manufacturer specifications (Invitrogen, Carlsbad, Calif.). Cells were harvested 48 hours post-transfection and lysed by sonication (setting 3, 10×5 sec pulses) in a buffer containing 20 mM HEPES pH 7.4, 1 mM EDTA and Complete Protease Inhibitor Cocktail Tablets (Roche, Indianapolis, Ind.). Lysate was collected by centrifugation at 75,000×g for 20 minutes at 4° C. and supernatant utilized for evaluation of PDE2 activity. The fluorescence polarization assay for cyclic nucleotide phosphodiesterases was performed using an IMAP® FP kit supplied by Molecular Devices, Sunnyvale, Calif. (product # R8139). […] Assays were performed at room temperature in 384-well microtiter plates with an incubation volume of 20.2 μL. Solutions of test compounds were prepared in DMSO and serially diluted with DMSO to yield 8 μL of each of 10 solutions differing by 3-fold in concentration, at 32 serial dilutions per plate. […] 0% of inhibition is determined by using DMSO (1% final concentrations).
A Labcyte Echo 555 (Labcyte, Sunnyvale, Calif.) is used to dispense 200 nL from each well of the titration plate to the 384 well assay plate. Ten microliters of a solution of enzyme (1/2000 final dilution from aliquots; sufficient to produce 20% substrate conversion) was added to the assay plate. Next 10 uL of a separate solution of the substrate FAM-labeled cAMP (50 nM final concentration product # R7506 from Molecular Devices) and the activator cGMP (1 uM final concentration), prepared in the assay buffer (10 mM Tris HCl, pH 7.2, 10 mM MgCl2, 0.05% NaN3 0.01% Tween-20, and 1 mM DTT) was added to the assay plate and shaken to mix. The reaction is allowed to proceed at room temperature for 60 minutes. A binding solution is then made from the kit components, comprised of 80% Solution A, 20% Solution B and binding reagent at a volume of 1/600 the total binding solution. The enzymatic reaction is stopped by addition of 60 μL of the binding solution to each well of the assay plates and the plates are sealed and shaken for 30 seconds. The plate was incubated at room temperature for at least one hour prior to determining the fluorescence polarization (FP). The parallel and perpendicular fluorescence of each well of the plate was measured using a Tecan Genios Pro plate reader (Tecan, Switzerland) or Perkin Elmer EnVision™ plate reader (Waltham, Mass.). Fluorescence polarization (mP) was calculated from the parallel (S) and perpendicular (P) fluorescence of each sample well and the analogous values for the median control well, containing only substrate (So and Po), using the following equation: Polarization (mP)=1000*(S/So−P/Po)/(S/So+P/Po).

human PDE2A1 = human PDE2A1 (Homo sapiens (Human), UniProt O00408); assay: IMAP fluorescence polarization assay, human PDE2A1 (PDE selectivity panel); type: biochemical; details: for Ki: FAM cAMP 50 nM with 1000 nM cGMP
human PDE2A1, sequence (O00408 other isoform, or with tags, fused parts or gaps): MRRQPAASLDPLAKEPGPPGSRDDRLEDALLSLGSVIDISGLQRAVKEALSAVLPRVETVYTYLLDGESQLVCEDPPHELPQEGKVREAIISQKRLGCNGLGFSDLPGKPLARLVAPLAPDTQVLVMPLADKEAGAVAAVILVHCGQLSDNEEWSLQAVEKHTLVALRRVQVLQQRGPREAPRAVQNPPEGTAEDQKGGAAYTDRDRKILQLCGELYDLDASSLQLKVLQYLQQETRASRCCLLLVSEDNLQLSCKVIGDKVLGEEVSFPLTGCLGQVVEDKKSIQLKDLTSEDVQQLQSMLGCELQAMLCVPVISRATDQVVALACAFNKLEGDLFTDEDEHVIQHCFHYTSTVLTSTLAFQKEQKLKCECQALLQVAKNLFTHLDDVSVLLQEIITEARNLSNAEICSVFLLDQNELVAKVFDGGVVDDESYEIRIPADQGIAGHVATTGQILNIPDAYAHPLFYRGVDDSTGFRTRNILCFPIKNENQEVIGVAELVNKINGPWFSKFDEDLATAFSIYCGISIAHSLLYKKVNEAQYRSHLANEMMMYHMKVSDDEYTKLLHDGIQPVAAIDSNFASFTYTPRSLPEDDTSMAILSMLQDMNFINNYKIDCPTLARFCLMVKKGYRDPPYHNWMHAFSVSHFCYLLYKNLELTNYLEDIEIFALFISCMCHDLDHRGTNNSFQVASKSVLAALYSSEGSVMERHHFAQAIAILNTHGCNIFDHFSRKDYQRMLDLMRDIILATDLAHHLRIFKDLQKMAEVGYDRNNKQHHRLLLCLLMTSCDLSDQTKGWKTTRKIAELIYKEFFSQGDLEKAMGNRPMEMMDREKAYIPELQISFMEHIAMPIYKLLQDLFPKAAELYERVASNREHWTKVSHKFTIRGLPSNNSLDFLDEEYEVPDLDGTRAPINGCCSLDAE
Summary of the method: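 GST-tagged human PDE2A1 from insect cells; enzyme set to ~20% conversion of 50 nM FAM-cAMP with 1000 nM cGMP, 60 min at room temperature in pH 7.2 Tris/MgCl2/DTT buffer, ten 3-fold compound dilutions. IMAP FP read, apparent Ki derived using apparent KM 10,000 nM.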

[1] = reported in Brandon et al. 2007; cited from earlier work
other PDE isoforms = details: reported in Brandon et al. 2007; cited from earlier work

Rhesus PDE2A3, sequence (B3VTJ2 1-941): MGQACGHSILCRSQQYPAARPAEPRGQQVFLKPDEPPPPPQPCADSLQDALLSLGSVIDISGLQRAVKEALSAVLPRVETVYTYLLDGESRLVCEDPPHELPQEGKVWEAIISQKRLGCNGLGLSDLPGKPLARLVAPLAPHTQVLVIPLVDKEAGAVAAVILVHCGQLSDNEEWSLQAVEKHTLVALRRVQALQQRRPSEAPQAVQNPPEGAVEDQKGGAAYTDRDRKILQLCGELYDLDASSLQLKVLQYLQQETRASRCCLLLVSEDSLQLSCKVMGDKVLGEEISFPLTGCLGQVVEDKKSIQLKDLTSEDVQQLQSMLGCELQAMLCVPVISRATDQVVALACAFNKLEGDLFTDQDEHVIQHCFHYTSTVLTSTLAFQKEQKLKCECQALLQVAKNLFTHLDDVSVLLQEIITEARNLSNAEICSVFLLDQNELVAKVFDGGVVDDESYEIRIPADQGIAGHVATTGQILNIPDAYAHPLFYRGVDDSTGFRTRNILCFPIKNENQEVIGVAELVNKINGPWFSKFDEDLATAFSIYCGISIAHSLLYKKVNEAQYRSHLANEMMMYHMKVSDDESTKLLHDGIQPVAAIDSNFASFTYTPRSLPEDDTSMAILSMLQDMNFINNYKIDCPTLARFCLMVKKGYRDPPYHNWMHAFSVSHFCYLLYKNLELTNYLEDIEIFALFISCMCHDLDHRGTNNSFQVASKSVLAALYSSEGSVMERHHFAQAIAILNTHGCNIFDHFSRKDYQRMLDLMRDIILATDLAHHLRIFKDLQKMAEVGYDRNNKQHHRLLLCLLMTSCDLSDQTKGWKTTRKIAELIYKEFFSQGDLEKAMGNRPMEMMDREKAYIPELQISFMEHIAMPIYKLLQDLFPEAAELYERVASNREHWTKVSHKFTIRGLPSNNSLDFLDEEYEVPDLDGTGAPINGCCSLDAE

SMILES	Ki (Rhesus PDE2A3) [nM]	Ki (human PDE2A1) [nM]	brain penetration [1]	potency at other PDE isoforms (other PDE isoforms)	inhibition at 3 µM (human PDE2A1) [%]
CC(c1ccc(C(F)(F)F)cc1F)n1cc(-c2cc(=O)[nH]c(CC3CC3)n2)nn1 (stereo not shown) [Example 14, 2-(cyclopropylmethyl)-6-(1-(1-(2-fluoro-4-(trifluoromethyl)phenyl)ethyl)-1H-1,2,3-triazol-4-yl)pyrimidin-4(3H)-one]	24.9	20.9	–	–	–
Cc1nc(-c2nnc(C(C)c3ccc(C(F)(F)F)cc3)[nH]2)cc(=O)[nH]1 (stereo not shown) [Example 60, 2-Methyl-6-(5-(1-(4-(trifluoromethyl)phenyl)ethyl)-4H-1,2,4-triazol-3-yl)pyrimidin-4(3H)-one]	204	–	–	–	–
COc1ccc(Cc2nc(-c3nnn4c3CCC[C@]4(C)c3ccc(C(F)(F)F)cc3F)cc(=O)[nH]2)cc1 (single isomer, unassigned) [Example 89]	0.63	0.4	–	–	–
CCc1ccc(C(C)n2cc(-c3cc(=O)[nH]c(C)n3)nn2)c(Cl)c1 (single isomer, unassigned) [Example 19, (R)- or (S)-6-(1-(1-(2-chloro-4-ethylphenyl)ethyl)-1H-1,2,3-triazol-4-yl)-2-methylpyrimidin-4(3H)-one]	3.4	2.1	–	–	–
CC(c1ccc(C(F)(F)F)cc1F)n1cc(-c2cc(=O)[nH]c(Cc3ccccc3)n2)nn1 (stereo not shown) [Example 12]	8.9	8.4	–	–	–
Cc1nc(-c2cn(C(C)c3ccc(OC(F)(F)F)cc3F)nn2)cc(=O)[nH]1 (stereo not shown) [Example 13, 6-(1-(1-(2-fluoro-4-(trifluoromethoxy)phenyl)ethyl)-1H-1,2,3-triazol-4-yl)-2-methylpyrimidin-4(3H)-one]	98.9	76.8	–	–	–
Cc1nc(-c2cn(C(C)c3ccc(OC(F)(F)F)cc3)nn2)cc(=O)[nH]1 (stereo not shown) [Example 11, 2-methyl-6-(1-(1-(4-(trifluoromethoxy)phenyl)ethyl)-1H-1,2,3-triazol-4-yl) pyrimidin-4(3H)-one]	50.4	55.8	–	–	–
Cc1nc(-c2cn(C(C)c3ccc(C(F)(F)F)cc3F)nn2)cc(=O)[nH]1 (single isomer, unassigned) [Example 28, (S)- or (R)-6-(1-(1-(2-fluoro-4-(trifluoromethyl)phenyl)ethyl)-1H-1,2,3-triazol-4-yl)-2-methylpyrimidin-4(3H)-one]	9	7	–	–	–
Cc1nc(-c2nnn3c2CCC[C@]3(C)c2ccc(C(F)(F)F)cc2Cl)cc(=O)[nH]1 (single isomer, unassigned) [Example 87]	1.8	1.2	–	–	–
Cc1nc(-c2cn([C@H](C)c3ccc(C(F)(F)F)cc3C)nn2)cc(=O)[nH]1 (single isomer, unassigned) [Example 9]	9.4	6.9	–	–	–
CC/C=C/c1nc(-c2cn(C(C)c3ccc(C(F)(F)F)cc3F)nn2)cc(=O)[nH]1 (stereo not shown) [Example 15, (E)-2-(but-1-enyl)-6-(1-(1-(2-fluoro-4-(trifluoromethyl)phenyl)ethyl)-1H-1,2,3-triazol-4-yl)pyrimidin-4(3H)-one]	6.5	4.7	–	–	–
Cc1nc(-c2cn(C(C)c3ccc(C(F)(F)F)c(F)c3F)nn2)cc(=O)[nH]1 (single isomer, unassigned) [Example 21, (R)- or (S)-6-(1-(1-(2,3-difluoro-4-(trifluoromethyl)phenyl)ethyl)-1H-1,2,3-triazol-4-yl)-2-methylpyrimidin-4(3H)-one]	3.9	2.6	–	–	–
Cc1nc(-c2cn(C(C)c3ccc(S(F)(F)(F)(F)F)cc3)nn2)cc(=O)[nH]1 (stereo not shown) [Example 16, 2-methyl-6-(1-(1-(4-(pentafluorosulfanyl)phenyl)ethyl)-1H-1,2,3-triazol-4-yl)pyrimidin-4(3H)-one]	39.4	37.8	–	–	–
COc1ccc(Cc2nn3c([C@@H](CCCc4ccccc4)[C@@H](C)O)nc(C)c3c(=O)[nH]2)cc1OC [Bay 60-7550]	–	–	limited brain penetration	significant potency	–
Cc1nc(-c2nnc3n2CCC[C@]3(C)c2ccc(C(F)(F)F)cc2F)cc(=O)[nH]1 (single isomer, unassigned) [Example 81]	1.7	0.93	–	–	–
Cc1nc(-c2cn(C3(c4ccc(C(F)(F)F)cc4Cl)CCC3)nn2)cc(=O)[nH]1 [Example 29, 6-(1-(1-(2-Chloro-4-(trifluoromethyl)phenyl)cyclobutyl)-1H-1,2,3-triazol-4-yl)-2-methylpyrimidin-4(3H)-one]	0.63	0.53	–	–	–
CCc1ccc(C(C)(C)n2cc(-c3cc(=O)[nH]c(C)n3)nn2)c(Cl)c1 [Example 32, 6-(1-(2-(2-chloro-4-ethylphenyl)propan-2-yl)-1H-1,2,3-triazol-4-yl)-2-methylpyrimidin-4(3H)-one]	2.1	1.6	–	–	–
Cc1nc(-c2cn(C(C)c3ccc(C(F)(F)F)cc3)nn2)cc(=O)[nH]1 (single isomer, unassigned) [Example 17, (R)- or (S)-2-methyl-6-(1-(1-(4-(trifluoromethyl)phenyl)ethyl)-1H-1,2,3-triazol-4-yl) pyrimidin-4(3H)-one]	44.7	36.2	–	–	–
Cc1nc(-c2nnn3c2CCC3(C)c2ccc(C(F)(F)F)cc2F)cc(=O)[nH]1 (single isomer, unassigned) [Example 97, (R)- or (S)-6-(6-(2-Fluoro-4-(trifluoromethyl)phenyl)-6-methyl-5,6-dihydro-4H-pyrolo[1,2-c][1,2,3]triazol-3-yl)-2-methylpyrimidin-4(3H)-one]	1.3	1.5	–	–	–
Cc1nc(-c2cn(C(C)c3ccc(C(F)(F)F)cc3)nn2)cc(=O)[nH]1 (single isomer, unassigned) [Example 18, (S)- or (R)-2-methyl-6-(1-(1-(4-(trifluoromethyl)phenyl)ethyl)-1H-1,2,3-triazol-4-yl) pyrimidin-4(3H)-one]	54.8	47	–	–	–
Cc1nc(-c2nnc3n2CCC[C@H]3c2ccc(C(F)(F)F)cc2)cc(=O)[nH]1 (mixture of isomers) [Example 71, (R)- and (S)-2-Methyl-6-(8-(4-(trifluoromethyl)phenyl)-5,6,7,8-tetrahydro-[1,2,4]triazolo[4,3-a]pyridin-3-yl)pyrimidin-4(3H)-one]	–	–	–	–	27
